Test results taken from patent US20260232745A1, “INHIBITION OF METHANE PRODUCTION IN RUMINANTS” (Loam Bio Pty Ltd, priority 2023, published 2026).
Where two headings read alike, the source gives them in different places.

Columns and labels:
[1] = test system: Curvularia sp. 4388 (NMI Accession No. V22/011149) VHPO, culture supernatant; details: MCD assay; for Km: pH 5.5, 25° C.
Method: (§1) Kinetic parameters of VHPOs were determined using the monochlorodimedone (MCD) (2-chloro-5,5-dimethyl-1,3-dimedon) assay. The assay was carried out in a 200 μL reaction volume using Greiner UV-Star® 96 well plates. MCD conversion was spectrophotometrically monitored at 290 nm (F=20/mM·cm) using a CLARIOstar® Plus microplate reader (BMG labtech, Germany) at 25° C. […] The buffers were acetate buffer for pH 4-5.5, MES buffer for pH 6 and 6.5, and HEPES buffer for pH 7-8. The MCD mixture was prepared and aliquoted to 96-well plates, followed by enzyme addition (10 μL of appropriate dilution). […] Stock solutions were prepared in advance for KBr (0.25M), Na3VO4 (25 mM), MCD (0.5 mM, adjusted pH to 6), and buffers (1M).
(§2) The absorbance values were plotted against time. For each curve, the slope of linear regression was determined as the initial velocity (Abs/min) of the enzyme activity.

[2] = test system: Curvularia sp. 4388 (NMI Accession No. V22/011149) VHPO, purified, SEQ ID NO: 2; details: MCD assay; for Km: pH 5.5, 25° C.
Method: as §1, §2
(§3) The following enzyme concentrations were used in the MCD assay: • For Curvularia sp.

[3] = test system: Curvularia spicifera US-188 (ATCC PTA-127510) VHPO, purified, SEQ ID NO: 3; details: MCD assay; for Ki: pH 6.5, substrate inhibition model; for Km: pH 6.5, 25° C.
Method: as §1, §2, §3

[4] = test system: Curvularia pseudobrachyspora US-215 (ATCC PTA-127509) VHPO, purified, SEQ ID NO: 5; details: MCD assay; for Ki: pH 5.5, substrate inhibition model; for Km: pH 5.5, 25° C.
Method: as §1, §2, §3

[5] = test system: Curvularia protuberata US-1111 (ATCC PTA-127607) VHPO, purified, SEQ ID NO: 7; details: MCD assay; for Km: pH 5.5, 25° C.
Method: as §1, §2, §3

[6] = test system: methane production; details: among the antimethanogenic compounds found in A. taxiformis; cited from earlier work
[7] = test system: methyl-coenzyme M reductase (MCR); details: background; cited from earlier work
[8] = test system: VHPO expressed in Curvularia sp. 4388 (SEQ ID NO: 2); assay: Enzyme reaction via VHPO mediated pathway, bromoform by GCMS; assay type: biochemical; details: VHPO (Curvularia sp. AU-4388 supernatant), KBr, H2O2, vanadate, 24 hours at room temperature
[9] = MCD assay, pH profile of VHPO activity; assay type: biochemical; details: for Optimal pH: first value of the cell: pH at which the kinetic parameters were determined; for optimal pH of enzyme activity: typical MCD assay, 25° C., value in brackets in Table 8, footnotes and text
[10] = pH 5.5, final 20-fold dilution of supernatant
[11] = read-out: KI (Br-), pH 5.5, substrate inhibition model
[12] = pH 5.5, final 200-fold dilution
[13] = read-out: KM (H2O2), H2O2 varied

[Br-].[K+] [Br-, bromide]
Vmax (Br-) [1, 10]: 0.964 [Abs/min]
Ki [1, 11]: 1.33 mM
Km ([1]; read-out: KM (Br-), KBr varied): 155 µM
Vmax (Br-) [2, 12]: 0.395 [Abs/min]
Ki [2, 11]: 2.9 mM
Km ([2]; read-out: KM (Br-), KBr varied): 68 µM
Vmax (Br-) ([3]; pH 6.5, final 20-fold dilution): 0.356[Abs/min]
Ki ([3]; read-out: KI (Br-)): 17.5 mM
Km ([3]; read-out: KM (Br-), KBr varied): 125 µM
Vmax (Br-) ([4]; pH 5.5, final 20-fold dilution): 0.039 [Abs/min]
Ki ([4]; read-out: KI (Br-)): 9.35 mM
Km ([4]; read-out: KM (Br-), KBr varied): 73 µM
Vmax (Br-) ([5]; pH 5.5, final 20-fold dilution): 0.0083 [Abs/min]
Ki [5, 11]: 33.6 mM
Km ([5]; read-out: KM (Br-), KBr varied): 38.7 µM

BrC(Br)Br [Bromoform, bromoform]
activity at inhibiting methane production [6]: highest activity

OO [H2O2, hydrogen peroxide]
Vmax (H2O2) [1, 10]: 0.466 [Abs/min]
Km [1, 13]: 297 µM
Vmax (H2O2) [2, 12]: 0.378 [Abs/min]
Km [2, 13]: 645 µM
Vmax (H2O2) ([3]; pH 6.5, final 20-fold dilution): 0.357 [Abs/min]
Ki ([3]; read-out: KI (H2O2)): 2.76 mM
Km [3, 13]: 400 µM
Vmax (H2O2) ([4]; pH 5.5, final 20-fold dilution): 0.123 [Abs/min]
Ki ([4]; read-out: KI (H2O2)): 31.3 mM
Km [4, 13]: 3300 µM
Vmax (H2O2) ([5]; pH 5.5, final 20-fold dilution): 0.0103 [Abs/min]
Km [5, 13]: 611 µM

BrC(Br)Br [bromoform]
inhibition of methyl-coenzyme M reductase (MCR) [7]: competitive inhibitor

ClC(Br)Br [dibromochloromethane]
activity at inhibiting methane production [6]: highest activity

CC1(C)CC(=O)CC(=O)C1 [dimedone]
GCMS peak for bromoform [8]: significant peak

B1: Purified VHPO (SEQ ID NO: 7): VHPO of Curvularia protuberata US-1111; purified from recombinant P. pastoris (protein)
chain: MGSVTPIPLPKIDEPEEYNTNYILFWNYVGLELNRVTHTVGGPLTGPPLSARALGMLHLAVHDAYFSICPPTDFTTFLSPDAENAAYRLPSTNGANDARQAVAGAALKMLTSLYMKPIEQPNPNPSANISDNAYAQLALVLDRSAMEAPGGIDRESASFMFGEAVADVFFALLNDPRGASQEGYHPTPGRYKFDDEPTHPVVLIPVDPNNPNGPKKPFRQYHAPFYGKTTKRFATQSEHFLADPPGLRSNADETAEYDDAIRVAIAMGGAQALNSTKRSPWQTAQGLYWAYDGSNLIGTPPRFYNQIVRRIAVTYKKEEDIANSEVNNADFARLFALVDVACTDAGIFSWKEKWEFEFWRPLSGVRDDGRPDHGDPFWLTLGAPATNTNDIPFKPPFPAYPSGHATFGGAVFQMVRRYYNGRVGTWKDDEPDNIAIDMMISEELNGLNRDLRQPYDPTAPIEDQPGIVRTRIVRHFDSAWELMFENAISRIFLGVHWRFDAAAARDILIPTTTKDVYAVDNNGATVFQNVEDIRYTTKGTREDREGLFPIGGVPLGIEIANEIFENGLKPTPPEIQPMPQETPAQKPVKGMWQEEQVPVVEEAP
Optimal pH [9]: 5.5
optimal pH of enzyme activity [9]: 5
optimal pH of enzyme activity ([9]; listed as SEQ ID NO: 7): 5

B2: Purified VHPO (SEQ ID NO: 5): VHPO of Curvularia pseudobrachyspora US-215; purified from recombinant P. pastoris (protein)
chain: MGSVIPIPLPKIDEPEEYNTNYVLFWNNVGLELNRVTHTVGGPLTGPPLSARALGMLHLAIHDAYFSIYPPTDFTTFLSPDAENAAYRLPSLNGANDARQAVAGAALKMLSSLYMKPDSSSGGSISDNAYAQLALVIDRSVLKAPGGVDRESASFVFGEAVADVFFALLNDPRGASQEGYHPTPGRYKFDDEPTHPVVLVPVDPNNPNGPKKPFRQYHAPFYGKTTKRFATQTEHFLADPPGLRSNADETAEYDDSIRVAVAMGGAQGLNSTKRSPWQTAQGLFWAYDGSNLVGTPPRFYNQIVRRIAVTYKKEEDLANSEVNNADFARLFALVDVACTDAGIFSWKEKWEYEFWRPLSGVRDDGRPDHGDPFWLTLGAPATNTNDIPFKPPFPAYPSGHATFGGAVFQMVRRYYNGRVGTWKDDEPDNIAIDMVISEELNGLNRDLRQPYDPTAPIEDQPGIVRTRIVRHFDSAWEMMFENAISRIFLGVHWRFDAAAARDILIPTTTKDVYAVDNNGATVFQNVEDIRYSTKGTREDREGLFPIGGVPLGIEIADEIFNNGLRPTPPELQPMPQETPVQKPIGQQLVQGLWHDEEGQVPVVKEAP
Optimal pH [9]: pH 5.5
optimal pH of enzyme activity [9]: 5.5

B3: Purified VHPO (SEQ ID NO: 2): VHPO of Curvularia sp. 4388, reference VHPO; purified from recombinant P. pastoris (protein)
chain: MGSITPIPLPKIDEPEEYNTNYILFWNHVGLELNRVTHTVGGPLTGPPLSARALGMLHLAIHDAYFSIYPPTDFSTFLSPNAENAAYRLPSPNGANDARQAVAGAALKMLTSLYMKPVETPNPNPGANISDNAYAQLALVIDRSVLKAPGGVDRESASFMFGETVADVFFALLNDPRGASQEGYHPTPGRYKFDDEPTHPVVLIPVDPNNPNGPKKPFRQYHAPFYGKTTKRFATQSEHFLADPPGLRSNADETAEYDDAIRVAIAMGGAQALNSTKRSPWQTAQGLFWAYDGSNLIGTPPRFYNQIVRRIAVTYKKEEDLANSEVNNADFARLFALVDVACTDAGIFSWKEKWEYEFWRPLSGVRDDGRPDHGDPFWLTLGAPATNTNDIPFKPPFPAYPSGHATFGGAVFQMVRRYYNGRVGTWKDDEPDNIAIDMMISEELNGLNRDLRQPYDPTAPIEDQPGIVRTRIVRHFDSAWELMFENAISRIFLGVHWRFDAAAARDILIPTTTKDVYAVDNNGATVFQNVEDIRYTTKGTREDREGLFPIGGVPLGIEIADEIFNNGLKPTPPELQPMPQQTPVQKPVGQQPVQGMWAEEQAPVIKEAP
Optimal pH [9]: pH 5.5
optimal pH of enzyme activity [9]: 5.5

B4: Purified VHPO (SEQ ID NO: 3): VHPO of Curvularia spicifera US-188; purified from recombinant P. pastoris (protein)
chain: MGSVTPIPIPRIDEPEEYNTNYILFWNHVGLELNRITHTVGGPLTGPPLSARALGMLHLAIHDAYFSICPPSDFTTFLSPDAENVAYRLPSLNGADDARQAVAGAALKMLSLLYMKPVEQPNPNPGANISDNAYAQLGLVLDRSVLKAPGGVDQESASFMFGEAVADVFFALLNDPRGASQEGYHPTLGRYKFDDEPTHPVVLIPVDPNNPNGPKKPFRQYHAPFYGKTTKRFATQSEHFLADPPGLRSNADETAEYDDSIRVAIAMGGAQGLNSTKRSPWQTAQGLYWAYDGSNLIGTPPRFYNQIVRRIAVTYKKEEDLANSEVNNADFARLFALVNVACTDAGIFSWKEKWEFEFWRPLSGVRDDGRPDHGDPFWLTLGAPATNTNDIPFKPPFPAYPSGHATFGGAVFQMVRRYYNGRVGTWKDDEPDNIAIDMMISEELNGLNRDLRQPYDPTAPIEDQPGIVRTRIVRHFDSAWEMMFENAISRIFLGVHWRFDAAAARDILIPTTTKDVYAVDNNGATVFQNVEDVRYSTKGTREGREGLFPIGGVPLGIEIADEIFNNGLRPTPPELQPMPQETPVQKPVEGMWEEEQAPIVNEAP
Optimal pH [9]: 6.5
optimal pH of enzyme activity [9]: 7
